The values that follow come from patent US10894817B2, “Fatty acid modified urocortin-2 analogs for the treatment of diabetes and chronic kidney disease” (priority 2016, dated 2021).

Read-outs that look alike come from different tables or passages of the source. Starred links: 1 amine or outer side, 2 acyl side, 3 side chain; linkers in the order of their positions; H or OH if unused. Residues, ends and D or L forms follow the SMILES beside them. Groups on a side chain read outwards from the residue. *: point of attachment. γGlu = O=C(O)[C@H](CCC(=O)[*:2])N[*:1]; Palmitoyl = CCCCCCCCCCCCCCCC(=O)*

One may read the EC50 as the concentration needed to bring the measured effect to its halfway point.

The target of the experiment is T1, human CRHR2b (Homo sapiens, UniProt Q13324).
T1 construct: expressed in transfected cells; host or cells: Chinese Hamster Ovary (CHO) cells, transient transfection
T1 sequence (Q13324 1-438 isoform Q13324-2): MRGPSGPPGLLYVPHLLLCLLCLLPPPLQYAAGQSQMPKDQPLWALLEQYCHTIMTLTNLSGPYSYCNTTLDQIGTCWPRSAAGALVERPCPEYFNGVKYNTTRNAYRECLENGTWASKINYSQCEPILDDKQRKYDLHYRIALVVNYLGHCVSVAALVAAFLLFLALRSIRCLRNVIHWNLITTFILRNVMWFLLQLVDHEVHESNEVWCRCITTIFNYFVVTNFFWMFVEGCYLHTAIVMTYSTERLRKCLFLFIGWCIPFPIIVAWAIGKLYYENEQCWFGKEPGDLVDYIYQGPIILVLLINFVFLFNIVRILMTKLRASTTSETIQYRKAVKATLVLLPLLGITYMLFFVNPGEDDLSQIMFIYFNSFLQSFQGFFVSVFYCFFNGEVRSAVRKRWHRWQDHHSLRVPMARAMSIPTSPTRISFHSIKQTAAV
Nature of the experiment: human CRHR2b cell-based cAMP assay. As to the method: CRHR agonistic activity is measured in a cell-based cAMP assay. Serial dilutions of the test peptides are made in assay buffer containing Hank's Balanced Salt Solution (HBSS, without phenol red) supplemented with 20 mM HEPES and 0.05% lactalbumin enzymatic hydrolysate (LAH) (“assay buffer”). […] A one to three dilution of the test peptides is used in both assays. Receptor over-expressing Chinese Hamster Ovary (CHO) cell line is used for the human CRHR2b assay. […] AF011406.1). Forty-eight hours after the transfection, the cells are centrifuged to remove the culture media and resuspended in fetal bovine serum containing 5% DMSO. They are cryofrozen and stored in vials in liquid nitrogen (20×10^6 cells/ml/vial). On the day of the assay, cells are thawed and resuspended in cold 30 ml culture media supplemented with 20 mM HEPES. The cells are then centrifuged to remove the media and washed once with HBSS supplemented with 20 mM HEPES. Finally, following the last centrifugation, the cells are resuspended in assay buffer. Thirty-thousand cells are used in the human CRHR2b assay for each treatment. The cells are dispensed into Costar 96-well black polystyrene half area EIA/RIA plates (Corning Incorporated, Corning, N.Y.) followed by the addition of the diluted peptides, each at a volume of 20 μL. The agonist induced cAMP levels are detected using a HTRF cAMP Dynamic 2 kit (CisBio, Bedford, Mass.). After incubation at 37° C. for 30 min, the assay is stopped by cell lysis via the addition of 20 μL of d2-labeled cAMP and followed by 20 μL of cryptate-labeled anti-cAMP antibody, as described by the manufacturer. Cellular cAMP (as a result of agonist stimulation) competes with the d2-labeled cAMP for binding to the antibody. HTRF detection is performed on an Envision plate reader (Perkin Elmer Life and Analytical Sciences, Waltham, Mass.) by measuring ratiometric emission at 620 and 665 nm after excitation at 320 nm. The data are converted to picomoles of cAMP using a standard curve obtained from the same assay performed with varying concentrations of unlabeled cAMP. […] The data are analyzed using a Curve Fitting Tool to calculate ED50. Numeric values shown below in Table 1 represent the mean of multiple runs (number of runs shown in parentheses) following the mean value±SEM.
A general note: Changes in cAMP serve as a functional read-out for many G protein-coupled receptors.

Where [1] appears, read: cAMP assay, Table 26, compounds of Example 9, read-out: hCRHR2b Average EC50.

In the case of `CCCCCCCCCCCCCCCC(=O)N[C@@H](CCC(=O)NCCCC[C@H](NC(=O)[C@H](CCC(N)=O)NC(=O)[C@H](CC(C)C)NC(=O)[C@H](CC(C)C)NC(=O)CNC(=O)[C@@H](NC(=O)[C@@H]1CCCN1C(=O)[C@@H](NC(=O)[C@H](CC(=O)O)NC(=O)[C@H](CC(C)C)NC(=O)[C@H](CO)NC(=O)[C@H](CC(C)C)NC(=O)[C@@H](NC(=O)[C@@H](N)[C@@H](C)CC)C(C)C)C(C)C)[C@@H](C)CC)C(=O)N[C@@H](CC(C)C)C(=O)N[C@@H](CC(C)C)C(=O)N[C@@H](CCC(=O)O)C(=O)N[C@@H](CCC(N)=O)C(=O)N[C@@H](CCC(=O)O)C(=O)N[C@@H](CCCCN)C(=O)N[C@@H](CCC(N)=O)C(=O)N[C@@H](CCC(=O)O)C(=O)N[C@@H](CCCCN)C(=O)N[C@@H](CCC(=O)O)C(=O)N[C@@H](CCCCN)C(=O)N[C@@H](CCC(N)=O)C(=O)N[C@@H](CCC(N)=O)C(=O)N[C@@H](C)C(=O)N[C@H](C(=O)N[C@H](C(=O)N[C@@H](CC(N)=O)C(=O)N[C@@H](C)C(=O)N[C@@H](CCCNC(=N)N)C(=O)N[C@H](C(=O)N[C@@H](CC(C)C)C(=O)N[C@@H](C)C(=O)N[C@@H](CCCNC(=N)N)C(=O)N[C@H](C(N)=O)C(C)C)[C@@H](C)CC)[C@@H](C)O)[C@@H](C)O)C(=O)O` [Compound 21] (H-IVLSLDVPIGLLQK([γGlu-Palmitoyl])LLEQEKQEKEKQQATTNARILARV-NH2), under setting [1], the EC50 stood at 0.00525 µM.

`CCCCCCCCCCCCCCCC(=O)N[C@@H](CCC(=O)NCCCC[C@H](NC(=O)[C@@H](NC(=O)[C@H](CCC(N)=O)NC(=O)[C@H](CC(C)C)NC(=O)[C@H](CC(C)C)NC(=O)CNC(=O)[C@@H](NC(=O)[C@@H]1CCCN1C(=O)[C@@H](NC(=O)[C@H](CC(=O)O)NC(=O)[C@H](CC(C)C)NC(=O)[C@H](CO)NC(=O)[C@H](CC(C)C)NC(=O)[C@@H](NC(=O)[C@@H](N)[C@@H](C)CC)C(C)C)C(C)C)[C@@H](C)CC)[C@@H](C)CC)C(=O)N[C@@H](CC(C)C)C(=O)N[C@@H](CCC(=O)O)C(=O)N[C@@H](CCC(N)=O)C(=O)N[C@@H](CCC(=O)O)C(=O)N[C@@H](CCCCN)C(=O)N[C@@H](CCC(N)=O)C(=O)N[C@@H](CCC(=O)O)C(=O)N[C@@H](CCCCN)C(=O)N[C@@H](CCC(=O)O)C(=O)N[C@@H](CCCCN)C(=O)N[C@@H](CCC(N)=O)C(=O)N[C@@H](CCC(N)=O)C(=O)N[C@@H](C)C(=O)N[C@H](C(=O)N[C@H](C(=O)N[C@@H](CC(N)=O)C(=O)N[C@@H](C)C(=O)N[C@@H](CCCNC(=N)N)C(=O)N[C@H](C(=O)N[C@@H](CC(C)C)C(=O)N[C@@H](C)C(=O)N[C@@H](CCCNC(=N)N)C(=O)N[C@H](C(N)=O)C(C)C)[C@@H](C)CC)[C@@H](C)O)[C@@H](C)O)C(=O)O` [Compound 22] (H-IVLSLDVPIGLLQIK([γGlu-Palmitoyl])LEQEKQEKEKQQATTNARILARV-NH2): the EC50 under setting [1] was determined as 0.0012 µM.

For `CCCCCCCCCCCCCCCC(=O)N[C@@H](CCC(=O)NCCCC[C@H](NC(=O)[C@H](CC(C)C)NC(=O)[C@H](CC(C)C)NC(=O)[C@@H](NC(=O)[C@H](CCC(N)=O)NC(=O)[C@H](CC(C)C)NC(=O)[C@H](CC(C)C)NC(=O)CNC(=O)[C@@H](NC(=O)[C@@H]1CCCN1C(=O)[C@@H](NC(=O)[C@H](CC(=O)O)NC(=O)[C@H](CC(C)C)NC(=O)[C@H](CO)NC(=O)[C@H](CC(C)C)NC(=O)[C@@H](NC(=O)[C@@H](N)[C@@H](C)CC)C(C)C)C(C)C)[C@@H](C)CC)[C@@H](C)CC)C(=O)N[C@@H](CCC(N)=O)C(=O)N[C@@H](CCC(=O)O)C(=O)N[C@@H](CCCCN)C(=O)N[C@@H](CCC(N)=O)C(=O)N[C@@H](CCC(=O)O)C(=O)N[C@@H](CCCCN)C(=O)N[C@@H](CCC(=O)O)C(=O)N[C@@H](CCCCN)C(=O)N[C@@H](CCC(N)=O)C(=O)N[C@@H](CCC(N)=O)C(=O)N[C@@H](C)C(=O)N[C@H](C(=O)N[C@H](C(=O)N[C@@H](CC(N)=O)C(=O)N[C@@H](C)C(=O)N[C@@H](CCCNC(=N)N)C(=O)N[C@H](C(=O)N[C@@H](CC(C)C)C(=O)N[C@@H](C)C(=O)N[C@@H](CCCNC(=N)N)C(=O)N[C@H](C(N)=O)C(C)C)[C@@H](C)CC)[C@@H](C)O)[C@@H](C)O)C(=O)O` [Compound 23] (H-IVLSLDVPIGLLQILLK([γGlu-Palmitoyl])QEKQEKEKQQATTNARILARV-NH2), the EC50 is 0.0179 µM.

In the case of `CCCCCCCCCCCCCCCC(=O)N[C@@H](CCC(=O)NCCCC[C@H](NC(=O)[C@H](CCC(N)=O)NC(=O)[C@H](CCC(=O)O)NC(=O)[C@H](CC(C)C)NC(=O)[C@H](CC(C)C)NC(=O)[C@@H](NC(=O)[C@H](CCC(N)=O)NC(=O)[C@H](CC(C)C)NC(=O)[C@H](CC(C)C)NC(=O)CNC(=O)[C@@H](NC(=O)[C@@H]1CCCN1C(=O)[C@@H](NC(=O)[C@H](CC(=O)O)NC(=O)[C@H](CC(C)C)NC(=O)[C@H](CO)NC(=O)[C@H](CC(C)C)NC(=O)[C@@H](NC(=O)[C@@H](N)[C@@H](C)CC)C(C)C)C(C)C)[C@@H](C)CC)[C@@H](C)CC)C(=O)N[C@@H](CCCCN)C(=O)N[C@@H](CCC(N)=O)C(=O)N[C@@H](CCC(=O)O)C(=O)N[C@@H](CCCCN)C(=O)N[C@@H](CCC(=O)O)C(=O)N[C@@H](CCCCN)C(=O)N[C@@H](CCC(N)=O)C(=O)N[C@@H](CCC(N)=O)C(=O)N[C@@H](C)C(=O)N[C@H](C(=O)N[C@H](C(=O)N[C@@H](CC(N)=O)C(=O)N[C@@H](C)C(=O)N[C@@H](CCCNC(=N)N)C(=O)N[C@H](C(=O)N[C@@H](CC(C)C)C(=O)N[C@@H](C)C(=O)N[C@@H](CCCNC(=N)N)C(=O)N[C@H](C(N)=O)C(C)C)[C@@H](C)CC)[C@@H](C)O)[C@@H](C)O)C(=O)O` [Compound 24, IVLSLDVPIGLLQILLEQK*KQEKEKQQATTNARILARV-NH2] (H-IVLSLDVPIGLLQILLEQK([γGlu-Palmitoyl])KQEKEKQQATTNARILARV-NH2), under setting [1], the EC50 is 0.0253 µM.

As to `CCCCCCCCCCCCCCCC(=O)N[C@@H](CCC(=O)NCCCC[C@H](NC(=O)[C@H](CCC(=O)O)NC(=O)[C@H](CCC(N)=O)NC(=O)[C@H](CCC(=O)O)NC(=O)[C@H](CC(C)C)NC(=O)[C@H](CC(C)C)NC(=O)[C@@H](NC(=O)[C@H](CCC(N)=O)NC(=O)[C@H](CC(C)C)NC(=O)[C@H](CC(C)C)NC(=O)CNC(=O)[C@@H](NC(=O)[C@@H]1CCCN1C(=O)[C@@H](NC(=O)[C@H](CC(=O)O)NC(=O)[C@H](CC(C)C)NC(=O)[C@H](CO)NC(=O)[C@H](CC(C)C)NC(=O)[C@@H](NC(=O)[C@@H](N)[C@@H](C)CC)C(C)C)C(C)C)[C@@H](C)CC)[C@@H](C)CC)C(=O)N[C@@H](CCC(N)=O)C(=O)N[C@@H](CCC(=O)O)C(=O)N[C@@H](CCCCN)C(=O)N[C@@H](CCC(=O)O)C(=O)N[C@@H](CCCCN)C(=O)N[C@@H](CCC(N)=O)C(=O)N[C@@H](CCC(N)=O)C(=O)N[C@@H](C)C(=O)N[C@H](C(=O)N[C@H](C(=O)N[C@@H](CC(N)=O)C(=O)N[C@@H](C)C(=O)N[C@@H](CCCNC(=N)N)C(=O)N[C@H](C(=O)N[C@@H](CC(C)C)C(=O)N[C@@H](C)C(=O)N[C@@H](CCCNC(=N)N)C(=O)N[C@H](C(N)=O)C(C)C)[C@@H](C)CC)[C@@H](C)O)[C@@H](C)O)C(=O)O` [Compound 25] (H-IVLSLDVPIGLLQILLEQEK([γGlu-Palmitoyl])QEKEKQQATTNARILARV-NH2), under setting [1], the EC50 is 0.0635 µM.
